Consider seven substances from patent US10260068B2, “Prophylactic agent and therapeutic agent for fibrodysplasia ossificans progressiva” (Sumitomo Dainippon Pharma Co., Ltd., priority 2014, dated 2019).

One series concerns BMP responsive sequence. In words: Luciferase reporter after siRNA knockdown of ACVR1 or BMPR1A in FOP patient derived cells treated with activin A. Type of series: cell-based, human. The note with it: activin A 16 hours. The method, then: Patient iPS cell line-derived mesenchymal stem cell-like cells were prepared by the same method as Example 1. The cells were transfected with a Firefly luciferase reporter plasmid having the BMP responsive sequence in the promoter region, a plasmid having a nucleic acid sequence coding for Renilla luciferase downstream of the CMV promoter, as an internal standard, and siRNA for ACVR1 or BMPR1A, using a Lipofectamine 2000 (product of Invitrogen Corp.), for knockdown of ACVR1 or BMPR1A expression. BMPR1A is a type I receptor that transmits the BMP signal. The siRNA used for knockdown was siRNA purchased from Applied Biosystems, having two different sequences for each gene (Catalog Nos. ACVR1:S975, S976, BMPR1A:S281, S282). The cells were also cultured for 16 hours with addition of activin A in the same manner as Example 1. The cells were then solubilized and the luciferase activity was measured. In FIG. 5, the bar graph indicates the mean values for each treated group, and the error bars represent S.D. Here, the sequences of the siRNA used for the test were S975: sense strand: 5′-GGAUCAUUCGUGUACAUCAtt-3′ (SEQ ID NO: 37), antisense strand: 5′-UGAUGUACACGAAUGAUCCaa-3′ (SEQ ID NO: 38), S976: sense strand: 5′-GUUGCUCUCCGAAAAUUUAtt-3′ (SEQ ID NO: 39), antisense strand: 5′-UAAAUUUUCGGAGAGCAACtc-3′ (SEQ ID NO: 40), S281: sense strand: 5′-GGCCGAUAUGGAGAAGUAUtt-3′ (SEQ ID NO: 41), antisense strand: 5′-AUACUUCUCCAUAUCGGCCtt-3′ (SEQ ID NO: 42), S282: sense strand: 5′-GAAUCUGGAUAGUAUGCUUtt-3′ (SEQ ID NO: 43), antisense strand: 5′-AAGCAUACUAUCCAGAUUCtg-3′ (SEQ ID NO: 44). The sequence portions printed in lowercase represent the overhang portions, as portions where the ribose backbone has been replaced with a deoxyribose backbone.
Background: In a reporter assay the amount or activity of a reporter protein is the signal.

A further series addresses T1, wild type ACVR1 (Homo sapiens, UniProt Q04771).
T1 construct: an iPS cell line with the ACVR1 gene mutation repaired to the normal type (wild type) by gene repair by a BAC knockin vector; endogenous in cells; host or cells: mesenchymal stem cell-like cells differentiated from the gene-corrected iPS cell clone
T1 sequence (Q04771 21-509): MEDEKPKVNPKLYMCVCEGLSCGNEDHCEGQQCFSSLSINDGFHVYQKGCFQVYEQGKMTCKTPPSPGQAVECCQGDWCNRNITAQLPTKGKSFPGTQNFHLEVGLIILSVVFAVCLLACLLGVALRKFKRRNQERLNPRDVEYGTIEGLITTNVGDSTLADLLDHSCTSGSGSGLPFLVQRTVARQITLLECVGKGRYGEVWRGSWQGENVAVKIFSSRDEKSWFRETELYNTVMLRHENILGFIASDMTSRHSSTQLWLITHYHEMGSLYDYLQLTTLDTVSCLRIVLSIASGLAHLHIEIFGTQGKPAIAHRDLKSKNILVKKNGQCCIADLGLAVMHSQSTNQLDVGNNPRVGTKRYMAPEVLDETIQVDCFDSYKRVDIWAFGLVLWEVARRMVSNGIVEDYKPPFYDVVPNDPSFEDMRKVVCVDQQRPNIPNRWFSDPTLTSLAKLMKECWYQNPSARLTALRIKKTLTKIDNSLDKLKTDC
In words: Luciferase reporter (BMP responsive sequence) transcription activity in gene-corrected clone derived cells. It is filed as cell-based. The following applies: ligand 1, 10, 100 ng/mL, 16 hours. The text has this: (§1) Following the method of Yamanaka et al. (Cell, 2007, 131 (5), […]), FOP patient-derived iPS cells (hereunder also referred to as “patient-derived iPS cell line”) were established. The patient cells were confirmed to be cells having a typical FOP-associated mutation in the ACVR1 gene. The mutation is a substitution of the 206th arginine residue of the amino acid sequence of ACVR1 (the amino acid sequence listed as SEQ ID NO: 10) with a histidine residue. Next, for use as a control, an iPS cell line with the ACVR1 gene mutation repaired to the normal type (wild type) by gene repair by a BAC knockin vector (hereunder also referred to as “gene-corrected iPS cell clone” or “gene-rescued iPS cell clone”) was established.
(§2) The patient-derived iPS cell line and gene-corrected iPS cell line were cultured on the matrix of a Matrigel coated plate (trade name: Growth Factor Reduced (GFR)BD Matrigel® by Becton & Dickinson), using mTeSR1 (Stem Cell Technologies) for 2 days under feeder-free conditions. Next, using serum-free medium [F12 Nutrient Mixture (product of Gibco)/Iscove's Modified Dulbecco's Medium (IMDM) (product of Sigma-Aldrich Japan, KK.)/0.5% bovine serum albumin (BSA) (product of Sigma-Aldrich Japan, KK.)/1% Chemically Defined Lipid (CD-Lipid) (product of Gibco, trade name: Chemically Defined Lipid Concentrate)/15 μg/mL apotransferrin (product of Sigma-Aldrich Japan, KK., trade name: apo-Transferrin human)/7 μg/mL insulin (product of Wako Pure Chemical Industries, Ltd., trade name: Insulin, Human, recombinant)/0.45 mM 1-Thioglycerol (product of Sigma-Aldrich Japan, KK.)] with addition of 10 μM SB-431542 (product of Selleck Chemicals) and 1 μM CHIR99021 (product of Wako Pure Chemical Industries, Ltd.), the patient-derived iPS cell line and gene-corrected iPS cell line were further cultured for 1 week under feeder-free conditions for differentiation to neural crest cells. […]
(§3) After mixing Firefly luciferase reporter plasmid having the BMP responsive sequence in the promoter region (J. Biol. Chem., 2002, 277(7), 4883-4891) and a plasmid having a nucleic acid sequence coding for Renilla luciferase downstream from CMV promoter, as an internal standard (product of Promega Corp., trade name: phRL-CMV Vector), FuGene® HD (Promega Corp.) was used for transfection into the mesenchymal stem cell-like cells. […] Next, the luciferase activity was measured according to the protocol provided with a Dual-Glo Luciferase Assay System (product of Promega Corp.). The luminescence was detected using an EnVision Multilabel Counter (product of Perkin-Elmer). […]

Series [1] has as its target T2, FOP patient-derived ACVR1 (Homo sapiens, UniProt Q04771, R206H).
T2 construct: The patient cells were confirmed to be cells having a typical FOP-associated mutation in the ACVR1 gene; endogenous in cells; host or cells: mesenchymal stem cell-like cells differentiated from an FOP patient-derived iPS cell line
T2 sequence (Q04771 21-509 R206H): T1 sequence (Q04771 21-509) with R186H
Kind of series: Luciferase reporter (BMP responsive sequence) transcription activity via ACVR1 in FOP patient derived cells. Type of series: cell-based. The following applies: ligand 1, 10, 100 ng/mL, 16 hours, significant at 10 and 100 ng/mL vs untreated group.
Excerpt: as §1, §2, §3

The subject of series [2] is FOP patient derived cells. Kind of series: Evaluation of binding inhibitors: chondrocyte differentiation of FOP patient derived cells in copresence of human activin A. Type of series: cell-based. The note with it: copresence of 30 ng/mL human activin A, 6 days; vs activin-treated group. The protocol:
Patient iPS cell line-derived mesenchymal stem cell-like cells were prepared by the same method as Example 1. The mesenchymal stem cell-like cells were cultured for 6 days by the same method as Example 3, for differentiation to chondrocytes. The effect of each factor on differentiation to chondrocytes was examined, with neutralizing antibody for human activin A (product of R&D Systems, Inc., trade name: Human/Mouse/Rat Activin A βA subunit Antibody), follistatin (product of R&D Systems, Inc., trade name: Recombinant Human Follistatin 315 as 30-344), follistatin-like 3 (product of R&D Systems, Inc., trade name: Recombinant Human Follistatin-related Gene Protein/FLRG), ACVR2A-Fc chimeric protein (product of R&D Systems, Inc., trade name: Recombinant Human Activin RIIA Fc Chimera (CHO)), or ACVR2B-Fc chimeric protein (product of R&D Systems, Inc., trade name: Recombinant Human Activin RIIB Fc Chimera), in the copresence of 30 ng/mL of human activin A. The ACVR2A-Fc chimeric protein is a fusion protein in which a polypeptide fragment having the amino acid sequence of positions 20 to 134 of the amino acid sequence listed as SEQ ID NO: 12, and the Fc region of the human-derived antibody, are bonded via a linker sequence (Ile-Glu-Gly-Arg-Met-Asp). The ACVR2B-Fc chimeric protein is a fusion protein in which a polypeptide fragment having the amino acid sequence of positions 19 to 134 of the amino acid sequence listed as SEQ ID NO: 14, and the Fc region of the human-derived antibody, are bonded via a linker sequence (Ile-Glu-Gly-Arg-Met-Asp). The extent of differentiation to chondrocytes was evaluated by Alcian blue staining and sulfated glycosaminoglycan assay, similar to Example 3. In FIG. 6(B), the bar graph indicates the mean values for each treated group, and the error bars represent S.D.

Residue numbers refer to the chain shown, from its start. d = 2'-deoxy (DNA); r = 2'-OH (RNA)

With “BMPR1A-2: siRNA for BMPR1A (Applied Biosystems S282), SEQ ID NO: 43/44 (chain 1 GAAUCUGGAUAGUAUGCUUTT; chain 2 AAGCAUACUAUCCAGAUUCTG; sugars from the 5' end r19 d2, backbone not given here)”, the “transcription activation of the BMP responsive sequence by human activin A after siRNA knockdown” value (from here on “transcription activation”) with BMP responsive sequence is given as “not affected”. For the substance “human activin AB: Recombinant Human Activin AB (R&D Systems); heterodimer of βA chain and βB chain”, the “transcription activity via ACVR1 (firefly/Renilla luciferase activity, BMP responsive sequence)” value in the series with wild type ACVR1 was “not seen”; in series [1], “significantly increased”. In the case of “BMPR1A-1: siRNA for BMPR1A (Applied Biosystems S281), SEQ ID NO: 41/42 (chain 1 GGCCGAUAUGGAGAAGUAUTT; chain 2 AUACUUCUCCAUAUCGGCCTT; sugars from the 5' end r19 d2, backbone not given here)”, in the series with BMP responsive sequence, the “transcription activation” value is “not affected”. “human activin B: Recombinant Human Activin B (R&D Systems); homodimer of βB chains”: the “transcription activity via ACVR1 (firefly/Renilla luciferase activity, BMP responsive sequence)” value with wild type ACVR1 is given as “not seen”; in series [1] it was “significantly increased”. As to “ACVR1-1: siRNA for ACVR1 (Applied Biosystems S975), SEQ ID NO: 37/38 (chain 1 GGAUCAUUCGUGUACAUCATT; chain 2 UGAUGUACACGAAUGAUCCAA; sugars from the 5' end r19 d2, backbone not given here)”, the “transcription activation” value in the series on BMP responsive sequence is “disappeared”.

As to “ACVR2A-Fc chimeric protein: Fusion of positions 20 to 134 of SEQ ID NO: 12 with human antibody Fc region via linker Ile-Glu-Gly-Arg-Met-Asp”, in series [2], the “differentiation of FOP patient derived cells to chondrocytes (Alcian blue staining, sulfated glycosaminoglycan assay)” value is “inhibited”. Turning to “ACVR1-2: siRNA for ACVR1 (Applied Biosystems S976), SEQ ID NO: 39/40 (chain 1 GUUGCUCUCCGAAAAUUUATT; chain 2 UAAAUUUUCGGAGAGCAACTC; sugars from the 5' end r19 d2, backbone not given here)”, the “transcription activation” value in the series on BMP responsive sequence was “disappeared”.
